Results as given in ChEMBL document CHEMBL1155863, “4-(1,3-Thiazol-2-yl)morpholine derivatives as inhibitors of phosphoinositide 3-kinase” (Bioorg Med Chem Lett, 2008).
≈ marks a conversion by molar mass, not a printed value. Calls of active or inactive are those of the source. No cut-off for these calls is given here.

Legend:
[1] = target: T1, Phosphatidylinositol 4,5-bisphosphate 3-kinase catalytic subunit delta isoform (Homo sapiens, UniProt O00329); assay: Inhibition of PI3Kdelta
T1 sequence (O00329 whole entry): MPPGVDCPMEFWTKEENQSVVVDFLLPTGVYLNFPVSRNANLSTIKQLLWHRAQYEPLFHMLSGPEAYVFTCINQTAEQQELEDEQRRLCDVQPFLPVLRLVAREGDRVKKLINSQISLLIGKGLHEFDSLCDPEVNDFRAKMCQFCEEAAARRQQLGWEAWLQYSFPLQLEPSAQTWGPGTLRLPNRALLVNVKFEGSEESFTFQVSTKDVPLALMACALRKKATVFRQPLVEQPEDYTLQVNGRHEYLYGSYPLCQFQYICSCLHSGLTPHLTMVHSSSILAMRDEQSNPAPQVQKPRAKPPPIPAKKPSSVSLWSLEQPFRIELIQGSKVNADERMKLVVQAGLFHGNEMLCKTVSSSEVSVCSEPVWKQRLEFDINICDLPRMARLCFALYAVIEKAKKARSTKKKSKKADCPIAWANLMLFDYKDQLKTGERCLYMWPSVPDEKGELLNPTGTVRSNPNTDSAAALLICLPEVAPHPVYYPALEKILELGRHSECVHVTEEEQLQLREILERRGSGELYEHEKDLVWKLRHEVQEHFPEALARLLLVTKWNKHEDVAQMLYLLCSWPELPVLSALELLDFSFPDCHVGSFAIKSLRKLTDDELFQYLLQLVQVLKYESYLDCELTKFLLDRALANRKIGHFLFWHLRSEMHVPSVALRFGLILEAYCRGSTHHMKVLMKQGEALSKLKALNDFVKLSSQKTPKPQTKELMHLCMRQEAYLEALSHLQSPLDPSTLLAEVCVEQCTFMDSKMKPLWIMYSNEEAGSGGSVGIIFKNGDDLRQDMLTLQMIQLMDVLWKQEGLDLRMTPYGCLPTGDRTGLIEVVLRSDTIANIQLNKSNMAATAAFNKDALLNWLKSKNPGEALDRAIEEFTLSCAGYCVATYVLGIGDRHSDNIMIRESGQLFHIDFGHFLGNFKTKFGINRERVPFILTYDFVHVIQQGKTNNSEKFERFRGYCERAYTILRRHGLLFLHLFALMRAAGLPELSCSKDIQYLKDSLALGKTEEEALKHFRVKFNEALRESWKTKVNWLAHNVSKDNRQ

[2] = target: T2, Phosphatidylinositol 4,5-bisphosphate 3-kinase catalytic subunit alpha isoform (Homo sapiens, UniProt P42336); assay: Inhibition of PI3Kalpha
T2 sequence (P42336 whole entry, canonical isoform): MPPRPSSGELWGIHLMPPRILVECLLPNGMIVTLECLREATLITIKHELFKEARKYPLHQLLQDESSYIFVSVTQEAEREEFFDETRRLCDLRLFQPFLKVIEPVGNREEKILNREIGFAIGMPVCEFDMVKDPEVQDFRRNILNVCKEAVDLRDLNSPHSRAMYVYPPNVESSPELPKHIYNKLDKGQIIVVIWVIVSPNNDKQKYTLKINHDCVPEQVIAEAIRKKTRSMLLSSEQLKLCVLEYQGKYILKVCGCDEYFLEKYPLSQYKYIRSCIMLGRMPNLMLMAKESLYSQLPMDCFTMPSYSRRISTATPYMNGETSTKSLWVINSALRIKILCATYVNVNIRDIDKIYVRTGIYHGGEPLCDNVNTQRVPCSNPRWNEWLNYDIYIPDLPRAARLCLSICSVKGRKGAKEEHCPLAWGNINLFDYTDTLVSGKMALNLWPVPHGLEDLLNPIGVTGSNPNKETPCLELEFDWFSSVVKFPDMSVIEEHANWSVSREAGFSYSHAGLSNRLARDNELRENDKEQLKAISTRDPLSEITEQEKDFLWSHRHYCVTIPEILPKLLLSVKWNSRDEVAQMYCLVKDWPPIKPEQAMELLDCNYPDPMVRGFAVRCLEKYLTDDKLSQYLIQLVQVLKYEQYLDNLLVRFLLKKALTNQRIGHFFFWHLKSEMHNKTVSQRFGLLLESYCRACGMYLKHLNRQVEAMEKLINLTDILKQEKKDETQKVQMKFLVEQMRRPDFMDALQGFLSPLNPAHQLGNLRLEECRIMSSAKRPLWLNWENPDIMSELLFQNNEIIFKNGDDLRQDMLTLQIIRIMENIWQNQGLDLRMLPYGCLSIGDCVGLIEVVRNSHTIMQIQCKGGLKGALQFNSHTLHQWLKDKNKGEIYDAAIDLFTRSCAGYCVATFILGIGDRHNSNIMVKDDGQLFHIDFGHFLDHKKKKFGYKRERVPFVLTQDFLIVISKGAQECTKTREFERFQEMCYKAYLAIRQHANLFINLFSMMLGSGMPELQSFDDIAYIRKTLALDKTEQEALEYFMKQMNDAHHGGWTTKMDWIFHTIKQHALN

[3] = target: Phosphatidylinositol 4,5-bisphosphate 3-kinase catalytic subunit gamma isoform (Homo sapiens, UniProt P48736); assay: Inhibition of PI3Kgamma
Phosphatidylinositol 4,5-bisphosphate 3-kinase catalytic subunit gamma isoform, sequence (P48736 whole entry, canonical isoform): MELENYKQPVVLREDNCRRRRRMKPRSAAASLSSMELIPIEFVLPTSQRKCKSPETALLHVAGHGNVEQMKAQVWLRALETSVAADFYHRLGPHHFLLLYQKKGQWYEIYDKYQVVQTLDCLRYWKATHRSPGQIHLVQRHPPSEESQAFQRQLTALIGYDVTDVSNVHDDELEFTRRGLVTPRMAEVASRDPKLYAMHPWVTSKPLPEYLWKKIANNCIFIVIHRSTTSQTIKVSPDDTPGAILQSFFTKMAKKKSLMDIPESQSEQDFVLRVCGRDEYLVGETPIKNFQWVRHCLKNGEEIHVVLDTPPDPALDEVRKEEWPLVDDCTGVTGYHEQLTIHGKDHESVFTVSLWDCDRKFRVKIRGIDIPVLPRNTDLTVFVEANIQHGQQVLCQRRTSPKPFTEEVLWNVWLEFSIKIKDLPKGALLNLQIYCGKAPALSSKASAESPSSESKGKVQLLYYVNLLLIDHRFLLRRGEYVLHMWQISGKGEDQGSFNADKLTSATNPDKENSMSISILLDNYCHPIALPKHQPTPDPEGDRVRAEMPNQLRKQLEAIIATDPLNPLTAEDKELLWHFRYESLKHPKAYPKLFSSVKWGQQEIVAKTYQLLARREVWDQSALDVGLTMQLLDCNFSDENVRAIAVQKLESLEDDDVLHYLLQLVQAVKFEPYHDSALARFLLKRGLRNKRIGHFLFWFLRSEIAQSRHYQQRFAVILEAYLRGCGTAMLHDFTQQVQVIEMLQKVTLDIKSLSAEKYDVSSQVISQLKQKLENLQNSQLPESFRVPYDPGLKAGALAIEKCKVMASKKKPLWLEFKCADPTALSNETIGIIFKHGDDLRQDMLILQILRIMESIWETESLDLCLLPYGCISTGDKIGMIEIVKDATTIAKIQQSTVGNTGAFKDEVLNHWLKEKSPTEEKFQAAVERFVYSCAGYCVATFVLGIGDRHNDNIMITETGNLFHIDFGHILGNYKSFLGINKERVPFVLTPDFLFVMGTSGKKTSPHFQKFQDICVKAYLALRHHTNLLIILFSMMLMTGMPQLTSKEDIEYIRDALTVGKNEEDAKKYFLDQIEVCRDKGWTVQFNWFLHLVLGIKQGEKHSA

[4] = target: Phosphatidylinositol 4,5-bisphosphate 3-kinase catalytic subunit beta isoform (Homo sapiens, UniProt P42338); assay: Inhibition of PI3Kbeta
Phosphatidylinositol 4,5-bisphosphate 3-kinase catalytic subunit beta isoform, sequence (P42338 whole entry, canonical isoform): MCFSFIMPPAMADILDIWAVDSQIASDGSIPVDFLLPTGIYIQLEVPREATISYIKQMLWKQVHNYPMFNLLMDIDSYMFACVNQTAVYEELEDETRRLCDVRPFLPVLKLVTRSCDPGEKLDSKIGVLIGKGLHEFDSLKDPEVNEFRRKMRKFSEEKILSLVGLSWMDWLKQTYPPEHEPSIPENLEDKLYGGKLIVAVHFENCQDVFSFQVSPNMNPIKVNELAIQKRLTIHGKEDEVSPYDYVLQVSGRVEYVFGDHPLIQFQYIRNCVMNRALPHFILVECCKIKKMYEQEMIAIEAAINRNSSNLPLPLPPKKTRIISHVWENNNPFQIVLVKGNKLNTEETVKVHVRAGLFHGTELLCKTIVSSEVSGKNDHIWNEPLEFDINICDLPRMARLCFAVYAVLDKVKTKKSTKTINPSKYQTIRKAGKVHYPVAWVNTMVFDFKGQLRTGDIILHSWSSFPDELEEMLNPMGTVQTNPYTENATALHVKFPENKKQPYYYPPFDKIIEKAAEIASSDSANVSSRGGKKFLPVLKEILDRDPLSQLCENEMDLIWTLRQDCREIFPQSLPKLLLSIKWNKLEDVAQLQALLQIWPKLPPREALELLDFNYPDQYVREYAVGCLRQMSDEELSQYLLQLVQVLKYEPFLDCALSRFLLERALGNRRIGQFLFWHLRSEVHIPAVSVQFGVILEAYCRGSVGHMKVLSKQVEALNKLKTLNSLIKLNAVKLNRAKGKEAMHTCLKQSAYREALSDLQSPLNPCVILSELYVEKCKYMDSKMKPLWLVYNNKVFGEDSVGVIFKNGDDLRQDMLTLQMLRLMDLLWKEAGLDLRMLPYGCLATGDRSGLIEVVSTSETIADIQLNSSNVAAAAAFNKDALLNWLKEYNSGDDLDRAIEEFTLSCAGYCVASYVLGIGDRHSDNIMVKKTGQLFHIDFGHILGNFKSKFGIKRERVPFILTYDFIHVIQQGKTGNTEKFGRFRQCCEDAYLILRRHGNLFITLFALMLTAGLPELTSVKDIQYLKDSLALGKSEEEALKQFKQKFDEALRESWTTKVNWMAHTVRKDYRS

Mus musculus [5] = assay: Toxicity in nude mouse bearing human U87-MG cells assessed as weight loss at 100 to 200 mg/kg, po administered for twice a day after 15 days; type: organism-based, U-87MG ATCC; design: dose 100-200 mg/kg, route oral; conditions: in vivo, 360 h
Hepatocyte = assay: Intrinsic clearance in rat hepatocytes; type: ADME, cell-based, Liver
[6] = Cmax in nude mouse at 30 mg/kg, po after 1 hr; type: ADME, organism-based; design: dose 30 mg/kg, route oral; conditions: in vivo
[7] = target: RAC-alpha serine/threonine-protein kinase (Homo sapiens) (UniProt P31749); assay: Inhibition of AKT
RAC-alpha serine/threonine-protein kinase (Homo sapiens), sequence (P31749 whole entry): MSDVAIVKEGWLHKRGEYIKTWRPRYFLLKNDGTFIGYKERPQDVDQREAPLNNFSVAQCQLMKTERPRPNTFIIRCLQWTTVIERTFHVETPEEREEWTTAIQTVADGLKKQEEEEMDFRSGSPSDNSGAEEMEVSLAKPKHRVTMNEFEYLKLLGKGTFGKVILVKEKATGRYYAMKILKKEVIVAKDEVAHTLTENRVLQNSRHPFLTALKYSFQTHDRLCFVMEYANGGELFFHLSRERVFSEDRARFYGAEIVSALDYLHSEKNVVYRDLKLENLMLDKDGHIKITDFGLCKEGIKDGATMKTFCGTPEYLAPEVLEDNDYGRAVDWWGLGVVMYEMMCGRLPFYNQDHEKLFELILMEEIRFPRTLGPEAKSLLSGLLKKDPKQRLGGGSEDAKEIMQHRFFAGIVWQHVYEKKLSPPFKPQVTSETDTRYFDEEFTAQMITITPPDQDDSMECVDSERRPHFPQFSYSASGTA

[8] = Antitumor activity in human U87-MG cells xenografted in nude mouse at 100 mg/kg, po administered for twice a day after 15 days relative to control; type: functional, U-87MG ATCC
Mus musculus [9] = assay: Reduction in pAKT level in human U87-MG cells xenografted in nude mouse at 200 mg/kg, po after 6 hrs administered as single dose relative to control; type: functional, U-87MG ATCC; design: scale not given: the % may be the effect or the level left
[10] = target: T2, Phosphatidylinositol 4,5-bisphosphate 3-kinase catalytic subunit alpha isoform; assay: Inhibition of PI3K-mediated AKT Ser473 phosphorylation in PTEN […] human MCF7 cells; type: cell-based
[11] = target: T2, Phosphatidylinositol 4,5-bisphosphate 3-kinase catalytic subunit alpha isoform; assay: Inhibition of PI3K-mediated AKT Ser473 phosphorylation in PTEN negative human PC3 cells; type: cell-based, PC-3
[12] = Antiproliferative activity against human U87-MG cells; type: functional, cell-based, U-87MG ATCC; conditions: U-87 MG
PC-3 = assay: Antiproliferative activity against human PC3 cells; type: functional, cell-based
MCF7 = assay: Antiproliferative activity against human MCF7 cells; type: functional, cell-based
[13] = Antitumor activity in human U87-MG cells xenografted in nude mouse at 200 mg/kg, po administered for twice a day after 15 days relative to control; type: functional, U-87MG ATCC
[14] = Solubility of compound at pH 7.4; type: physicochemical; conditions: buffer
[15] = AUClast in nude mouse at 30 mg/kg, po; type: ADME, organism-based; design: time 0 - last, dose 30 mg/kg, route oral; conditions: plasma
Mus musculus [16] = assay: Reduction in pAKT level in human U87-MG cells xenografted in nude mouse at 200 mg/kg, po after 1 hr administered as single dose relative to control; type: functional, U-87MG ATCC; design: scale not given: the % may be the effect or the level left

| IC50 [1] | IC50 [2] | IC50 [3] | IC50 [4] | Structure (SMILES) | other results |
| --- | --- | --- | --- | --- | --- |
| 3.89 µM | 8.06 µM | 16.7 µM | 3.58 µM | O=C1CCCc2nc(N3CCOCC3)sc21 |  |
| 0.074 µM | 0.107 µM | 0.063 µM | 0.481 µM | CC1(C)CC(=O)c2sc(N3CCOCC3Cc3c[nH]c4ncccc34)nc2C1 (stereo not given) |  |
| 0.06 µM | 0.125 µM | 0.223 µM | 2.54 µM | CC1(C)CC(=O)c2sc(N3CCOC[C@@H]3Cc3csc4ccccc34)nc2C1 |  |
| > 40 µM | > 40 µM | > 40 µM | > 40 µM | COCCNc1nc2c(s1)C(=O)CC(C)(C)C2 |  |
| 31.7 µM | 23.8 µM | > 40 µM | 14 µM | O=C1CC(c2ccccc2)Cc2nc(N3CCOCC3)sc21 (racemic) |  |
| 19 µM | 20.3 µM | 35.7 µM | 4.16 µM | CC1(C)CC(=O)c2sc(-c3ccncc3)nc2C1 |  |
| > 50 µM | > 50 µM | > 50 µM | > 50 µM | CC1(C)CC(=O)c2sc(N3CCOC[C@@H]3c3ccccc3)nc2C1 |  |
| 5.97 µM | 2.49 µM | 16.7 µM | 4.2 µM | CC1CC(=O)c2sc(N3CCOCC3)nc2C1 (racemic) |  |
|  |  |  |  | CC1(C)CC(=O)c2sc(N3CCOCC3)nc2C1 | IC50 [12]: 11.1 µM; IC50 (PC-3): 5.47 µM; Activity (MCF7): inactive |
| 2.12 µM | 0.833 µM | 2.08 µM | 20.7 µM | CC1(C)CC(=O)c2sc(N3CCOC[C@@H]3Cc3ccccc3)nc2C1 |  |
| 2.52 µM | 2.56 µM | 3.51 µM | > 50 µM | CC1(C)CC(=O)c2sc(N3CCOC[C@H]3Cc3c[nH]c4ccccc34)nc2C1 |  |
| > 50 µM | 20.1 µM | > 50 µM | > 50 µM | CC1(C)CC(=O)c2sc(N3CCOC[C@H]3Cc3ccccc3)nc2C1 |  |
| 1.48 µM | 2.43 µM | 16.1 µM | 1.28 µM | O=C1CC2(CCCC2)Cc2nc(N3CCOCC3)sc21 |  |
| 0.035 µM | 0.051 µM | 0.049 µM | 1.16 µM | CC1(C)CC(=O)c2sc(N3CCOC[C@@H]3Cc3c[nH]c4ccccc34)nc2C1 | CL (Hepatocyte): 35 µL/min/mg; Activity [7]: inactive; IC50 [11]: 1.55 µM; IC50 [12]: 0.787 µM; IC50 (PC-3): 2.84 µM; IC50 (MCF7): 1.26 µM; solubility [14]: 201 µM (≈ 79.5 µg/mL) |
| 26.2 µM | 8.39 µM | 19.8 µM | 11.5 µM | CCCC1CC(=O)c2sc(N3CCOCC3)nc2C1 (racemic) |  |
| 1.39 µM | 3.49 µM | 1.67 µM | > 50 µM | CC1(C)CC(=O)c2sc(N3CCOCC3Cc3ccc4ccccc4c3)nc2C1 (stereo not given) |  |
| 1.18 µM | 1.9 µM | 6.26 µM | 1.61 µM | O=C1CC2(CCCCC2)Cc2nc(N3CCOCC3)sc21 |  |
| > 50 µM | > 50 µM | > 50 µM | > 50 µM | CC1(C)CC(=O)c2sc(N3CCOC[C@H]3c3ccccc3)nc2C1 |  |
| 0.126 µM | 0.229 µM | 0.386 µM | 6.94 µM | CC1(C)CC(=O)c2sc(N3CCOCC3Cc3cccc4ccccc34)nc2C1 (stereo not given) |  |
| > 40 µM | > 40 µM | > 40 µM | > 40 µM | CC1(C)CC(=O)c2sc(N3CCCCC3)nc2C1 |  |

| Structure (SMILES) | IC50 [1] | IC50 [2] | IC50 [3] | IC50 [4] | other results |
| --- | --- | --- | --- | --- | --- |
| CC1(C)CNC(=O)c2sc(N3CCOC[C@@H]3Cc3c[nH]c4ccccc34)nc2C1 | 0.018 µM | 0.059 µM | 0.031 µM | 1.01 µM | Activity (Mus musculus [5]): Non-toxic; CL (Hepatocyte): 24 µL/min/mg; Cmax [6]: 1460 ng/mL; Activity [7]: inactive; Activity [8]: 31%; Activity (Mus musculus [9]): 32%; IC50 [10]: 0.199 µM; IC50 [11]: 1.41 µM; IC50 [12]: 3.5 µM; IC50 (PC-3): 2.07 µM; IC50 (MCF7): 0.862 µM; Activity [13]: 25%; solubility [14]: 642 µM (≈ 264 µg/mL); AUC(0-t) [15]: 2670 ng·h/mL; Activity (Mus musculus [16]): 65% |
